Results on 3 compounds are retold here after ChEMBL document CHEMBL3714758, “3H-imidazo[4,5-b]pyridin-5-ol derivatives useful in the treatment of GPR81 receptor disorders” (2013).

What is called IC50 is the concentration needed to halve the response being measured. Read a low IC50 as greater potency.

Calls of active or inactive are those of the source. The calls are words filed in the database; no cut-off is given here.

One assay relates to Mus musculus. The assay can be described thus: Reduction in circulating free fatty acids in food-deprived C57/B16 mouse at 100 mg/kg, ip measured after 30 mins by NEFA assay. In kind it is functional, organism-based.
A further assay deals with Rattus norvegicus. The assay can be described thus: Reduction in circulating free fatty acids in food-deprived Sprague-Dawley rat at 1 to 100 mg/kg, po measured after 10 to 240 mins post dose by NEFA assay. Format: functional, organism-based.
Another assay concerns Adipocyte. Nature of the assay: Inhibition of lipolysis in Sprague-Dawley rat epididymal adipocytes pre-incubated for 10 mins before theophylline addition followed by further incubation for 3 hrs by microplate reader based assay. In kind it is functional, cell-based.

With `Oc1ccc2ncn(-c3ccccc3Cl)c2n1`, the inhibition entry in the assay on Mus musculus and with Rattus norvegicus was “Active” each time. For the same compound, in the assay with Adipocyte, the half-inhibitory concentration (IC50) was determined as 234 nM.

`Oc1ccc2ncn(-c3ccccc3C(F)(F)F)c2n1`: the inhibition entry in the assay on Mus musculus is “Active”.

`O=C(O)c1cccnc1`: the inhibition result in the assay on Mus musculus is “Active”.
